Where a name gives a salt, the structure may show the parent alone.
Key:
Assay type in all cases: cell-based
human TLR7 = target: T1, human TLR7 (Homo sapiens, UniProt Q9NYK1); assay: TLR7 inhibition reporter assay (HEK-Blue SEAP reporter); conditions: HEK-Blue cells overexpressing human TLR7; gardiquimod 7.5 μM; 22 hour incubation
T1 construct: host or cells: HEK-Blue cells
T1 sequence (Q9NYK1 27-1049): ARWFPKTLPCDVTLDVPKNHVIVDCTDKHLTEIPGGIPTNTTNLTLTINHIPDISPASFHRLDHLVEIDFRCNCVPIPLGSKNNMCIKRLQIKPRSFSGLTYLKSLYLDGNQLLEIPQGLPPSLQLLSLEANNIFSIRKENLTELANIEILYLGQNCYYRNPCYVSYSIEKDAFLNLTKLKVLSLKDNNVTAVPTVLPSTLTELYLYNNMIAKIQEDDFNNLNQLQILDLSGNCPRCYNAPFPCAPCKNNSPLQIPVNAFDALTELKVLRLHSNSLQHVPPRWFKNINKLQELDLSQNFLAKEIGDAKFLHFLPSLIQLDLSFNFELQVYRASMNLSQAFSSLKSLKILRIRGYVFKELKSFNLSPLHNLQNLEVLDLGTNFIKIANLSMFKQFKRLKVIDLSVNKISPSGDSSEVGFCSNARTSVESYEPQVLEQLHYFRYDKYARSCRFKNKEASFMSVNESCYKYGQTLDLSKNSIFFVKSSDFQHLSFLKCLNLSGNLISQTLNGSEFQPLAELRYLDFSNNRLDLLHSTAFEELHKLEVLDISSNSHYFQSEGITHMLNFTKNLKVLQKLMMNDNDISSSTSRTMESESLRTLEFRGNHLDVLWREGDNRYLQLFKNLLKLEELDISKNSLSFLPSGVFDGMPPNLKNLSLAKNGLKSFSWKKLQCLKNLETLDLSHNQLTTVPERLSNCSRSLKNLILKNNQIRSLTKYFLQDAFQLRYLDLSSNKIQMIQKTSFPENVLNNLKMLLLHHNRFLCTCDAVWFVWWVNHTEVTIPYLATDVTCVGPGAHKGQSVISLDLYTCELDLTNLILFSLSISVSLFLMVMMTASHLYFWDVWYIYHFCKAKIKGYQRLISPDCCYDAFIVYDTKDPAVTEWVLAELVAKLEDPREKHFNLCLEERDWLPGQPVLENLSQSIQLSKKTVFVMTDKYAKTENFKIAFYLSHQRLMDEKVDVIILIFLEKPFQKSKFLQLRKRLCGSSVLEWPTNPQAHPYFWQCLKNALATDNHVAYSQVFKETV
In short: (§1)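 Compound treatment: 30 min, RT, 0.05 nM–50 μM final. Agonist: TLR7 gardiquimod 7.5 μM; TLR8 R848 15.9 μM; TLR9 ODN2006 5 nM. Incubation 22 h, 37 °C, 5% CO2. Readout SEAP, HEK-Blue Detection.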

human TLR9 = target: T2, human TLR9 (Homo sapiens, UniProt Q9NR96); assay: TLR9 inhibition reporter assay (HEK-Blue SEAP reporter); conditions: HEK-Blue cells overexpressing human TLR9; ODN2006 5 nM; 22 hour incubation
T2 construct: host or cells: HEK-Blue cells
T2 sequence (Q9NR96 26-1032): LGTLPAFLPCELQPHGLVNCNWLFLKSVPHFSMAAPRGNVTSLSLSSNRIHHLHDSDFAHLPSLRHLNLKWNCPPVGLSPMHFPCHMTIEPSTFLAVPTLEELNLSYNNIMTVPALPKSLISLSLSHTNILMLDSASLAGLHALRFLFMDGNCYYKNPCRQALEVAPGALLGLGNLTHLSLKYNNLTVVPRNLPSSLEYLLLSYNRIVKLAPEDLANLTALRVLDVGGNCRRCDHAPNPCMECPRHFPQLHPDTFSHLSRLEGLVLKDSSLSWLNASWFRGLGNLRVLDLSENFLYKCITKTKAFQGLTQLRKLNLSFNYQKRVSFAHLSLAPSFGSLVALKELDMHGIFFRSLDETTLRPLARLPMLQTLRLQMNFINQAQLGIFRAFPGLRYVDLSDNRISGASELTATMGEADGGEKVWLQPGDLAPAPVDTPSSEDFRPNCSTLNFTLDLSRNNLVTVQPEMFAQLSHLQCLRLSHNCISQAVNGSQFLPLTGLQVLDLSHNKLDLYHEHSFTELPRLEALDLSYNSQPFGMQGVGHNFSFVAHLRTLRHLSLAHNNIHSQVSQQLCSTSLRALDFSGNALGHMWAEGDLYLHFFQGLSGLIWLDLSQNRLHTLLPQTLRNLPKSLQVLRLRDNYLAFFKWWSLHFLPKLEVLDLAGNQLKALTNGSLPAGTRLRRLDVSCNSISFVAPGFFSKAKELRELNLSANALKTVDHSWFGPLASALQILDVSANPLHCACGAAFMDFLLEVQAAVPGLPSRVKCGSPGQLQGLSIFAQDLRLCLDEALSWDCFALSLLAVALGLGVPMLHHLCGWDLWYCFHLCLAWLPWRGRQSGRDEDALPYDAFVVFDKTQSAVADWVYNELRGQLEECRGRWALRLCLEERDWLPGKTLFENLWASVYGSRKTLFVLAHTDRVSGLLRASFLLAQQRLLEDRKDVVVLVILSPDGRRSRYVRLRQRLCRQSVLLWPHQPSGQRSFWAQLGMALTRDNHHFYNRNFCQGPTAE
In short: as §1

human TLR8 = target: T3, human TLR8 (Homo sapiens, UniProt Q9NR97); assay: TLR8 inhibition reporter assay (HEK-Blue SEAP reporter); conditions: HEK-Blue cells overexpressing human TLR8; R848 15.9 μM; 22 hour incubation
T3 construct: host or cells: HEK-Blue cells
T3 sequence (Q9NR97 27-1041): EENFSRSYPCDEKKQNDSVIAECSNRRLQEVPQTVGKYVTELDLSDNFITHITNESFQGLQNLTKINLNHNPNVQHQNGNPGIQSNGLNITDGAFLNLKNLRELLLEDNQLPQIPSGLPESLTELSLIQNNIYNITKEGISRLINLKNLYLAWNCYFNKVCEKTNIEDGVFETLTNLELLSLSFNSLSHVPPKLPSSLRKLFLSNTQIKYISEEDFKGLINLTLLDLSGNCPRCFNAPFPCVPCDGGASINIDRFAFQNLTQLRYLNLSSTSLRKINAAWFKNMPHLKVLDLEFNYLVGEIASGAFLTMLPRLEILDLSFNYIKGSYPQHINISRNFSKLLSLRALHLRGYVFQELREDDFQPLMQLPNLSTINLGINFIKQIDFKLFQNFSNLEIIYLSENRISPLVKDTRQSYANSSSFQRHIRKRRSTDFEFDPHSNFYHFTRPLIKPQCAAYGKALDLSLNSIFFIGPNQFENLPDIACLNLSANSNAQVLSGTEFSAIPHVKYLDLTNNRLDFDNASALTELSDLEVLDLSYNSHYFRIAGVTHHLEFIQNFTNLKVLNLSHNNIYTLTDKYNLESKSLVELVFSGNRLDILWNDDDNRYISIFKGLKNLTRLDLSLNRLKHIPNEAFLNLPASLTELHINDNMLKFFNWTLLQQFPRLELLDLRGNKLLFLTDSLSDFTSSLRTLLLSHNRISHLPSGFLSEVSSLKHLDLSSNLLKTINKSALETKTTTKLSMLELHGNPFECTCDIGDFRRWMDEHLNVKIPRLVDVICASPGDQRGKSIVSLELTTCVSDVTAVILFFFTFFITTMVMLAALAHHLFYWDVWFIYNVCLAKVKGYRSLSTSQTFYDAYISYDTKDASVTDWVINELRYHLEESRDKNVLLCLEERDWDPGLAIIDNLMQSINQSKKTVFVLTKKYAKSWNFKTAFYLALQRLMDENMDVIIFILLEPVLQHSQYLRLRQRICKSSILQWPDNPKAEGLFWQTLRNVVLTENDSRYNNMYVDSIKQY
In short: as §1

Structure (SMILES) | IC50 (human TLR7) | IC50 (human TLR9) | IC50 (human TLR8)
COc1ccc(-c2[nH]c3ccc(N4CCC(N(C)C)C4)cc3c2C(C)C)cc1OC (stereo not drawn) [Example 120, 1-(2-(3,4-dimethoxyphenyl)-3-isopropyl-H-indol-5-yl)-N,N-dimethylpyrrolidin-3-amine] | 118 nM | 3290 nM | 17 nM
COc1ccc(-c2[nH]c3ccc(N4CCC(N5CCCNCC5)CC4)cc3c2C(C)C)cc1OC [Example 121, 5-(4-(1,4-diazepan-1-yl)piperidin-1-yl)-2-(3,4-dimethoxyphenyl)-3-isopropyl-1H-indole] | 15 nM | 993 nM | 5.2 nM
COc1ccc(-c2[nH]c3ccc(N4CCN(C5CCCN(C(C)C)CC5)CC4)cc3c2C(C)C)cc1OC (stereo not drawn) [Example 122, 2-(3,4-dimethoxyphenyl)-3-isopropyl-5-(4-(1-isopropylazepan-4-yl)piperazin-1-yl)-1H-indole] | 42 nM | 621 nM | 3.4 nM
COc1ccc(-c2[nH]c3ccc(N4CCNCC4)cc3c2C(C)C)cc1OC [Example 126, 2-(3,4-dimethoxyphenyl)-3-isopropyl-5-(piperazin-1-yl)-1H-indole, TFA Salt] | 53 nM | 4740 nM | 14 nM
CNCCN1CCN(c2ccc3[nH]c(-c4ccc(OC)c(OC)c4)c(C(C)C)c3c2)CC1 [Example 127, 2-(4-(2-(3,4-dimethoxyphenyl)-3-isopropyl-1H-indol-5-yl)piperazin-1-yl)-N-methylethanamine] | 45 nM | 6320 nM | 15 nM
CC(C)c1c(-c2ccnc3[nH]ccc23)[nH]c2ccc(N3CCNCC3)cc12 [Example 128, 4-(3-isopropyl-5-(piperazin-1-yl)-1H-indol-2-yl)-1H-pyrrolo[2,3-b]pyridine] | 2.3 nM | 8100 nM | 0.41 nM
CCc1c(-c2cc(OC)nc(OC)c2)[nH]c2ccc(N3CCNCC3)cc12 [Example 129, 2-(2,6-dimethoxypyridin-4-yl)-3-ethyl-5-(piperazin-1-yl)-1H-indole] | 75 nM | 3320 nM | 22 nM
Cc1cc2[nH]c(-c3ccnc4[nH]ncc34)c(C(C)C)c2cc1N1CCNCC1 [Example 130, 4-(3-isopropyl-6-methyl-5-(piperazin-1-yl)-1H-indol-2-yl)-1H-pyrazolo[3,4-b]pyridine] | 2 nM | 1160 nM | 7.8 nM
CCc1c(-c2ccc(OC)c(OC)c2)[nH]c2ccc(N3CCC(C4CCNCC4)CC3)cc12 [Example 131, 5-([4,4′-bipiperidin]-1-yl)-2-(3,4-dimethoxyphenyl)-3-ethyl-1H-indole] | 187 nM | 648 nM | 132 nM
COc1ccc(-c2[nH]c3ccc(N4CCC(OC5CCNCC5)CC4)cc3c2C(C)C)cc1OC [Example 133, 2-(3,4-dimethoxyphenyl)-3-isopropyl-5-(4-(piperidin-4-yloxy)piperidin-1-yl)-1H-indole] | 16 nM | 339 nM | 55 nM

Next, values leading:

IC50 (human TLR7) | IC50 (human TLR9) | IC50 (human TLR8) | Structure (SMILES)
54 nM | 462 nM | 94 nM | CCc1c(-c2ccc(OC)c(OC)c2)[nH]c2ccc(N3CCC(OC4CCN(C)CC4)CC3)cc12 [Example 134, 2-(3,4-dimethoxyphenyl)-3-ethyl-5-(4-((1-methylpiperidin-4-yl)oxy)piperidin-1-yl)-1H-indole]
774 nM | 2460 nM | 95 nM | COc1ccc(-c2[nH]c3ccc(N4CC5CCCNC5C4)cc3c2C(C)C)cc1OC (stereo not drawn) [Example 135, 6-(2-(3,4-dimethoxyphenyl)-3-isopropyl-1H-indol-5-yl)octahydro-1H-pyrrolo[3,4-b]pyridine]
542 nM | 2650 nM | 35 nM | COc1ccc(-c2[nH]c3ccc(N4CC5(CCCNC5)C4)cc3c2C(C)C)cc1OC [Example 136, 2-(2-(3,4-dimethoxyphenyl)-3-isopropyl-H-indol-5-yl)-2,6-diazaspiro[3.5]nonane]
2 nM | 939 nM | 0.62 nM | CNCCN1CCN(c2ccc3[nH]c(-c4ccnc5[nH]ccc45)c(C(C)C)c3c2)CC1 [Example 138, 2-(4-(3-isopropyl-2-(1H-pyrrolo[2,3-b]pyridin-4-yl)-1H-indol-5-yl)piperazin-1-yl)-N-methylethan-1-amine]
2760 nM | 157 nM | 1070 nM | CCc1c(-c2ccnc(C)c2)[nH]c2ccc(N3CCN(C4CCN(C)CC4)CC3)cc12 [Example 139, 3-ethyl-5-(4-(1-methylpiperidin-4-yl)piperazin-1-yl)-2-(2-methylpyridin-4-yl)-1H-indole]
2170 nM | 124 nM | 1720 nM | Cc1c(-c2ccnc3[nH]ccc23)[nH]c2ccc(N3CCN(C4CCN(C)CC4)CC3)cc12 [Example 141, 4-(3-methyl-5-(4-(1-methylpiperidin-4-yl)piperazin-1-yl)-1H-indol-2-yl)-1H-pyrrolo[2,3-b]pyridine]

— patent US11306092B2, “Amino indole compounds useful as TLR inhibitors” (BRISTOL-MYERS SQUIBB COMPANY, priority 2017, dated 2022)
